For this assay, the target named is T1, human vasopressin V1b receptor (Homo sapiens, UniProt P47901).
T1 construct: expressed in transfected cells; host or cells: CHO-K1 (cell line hV1b_3H2_CHO), membrane preparation
T1 sequence (P47901 1-424): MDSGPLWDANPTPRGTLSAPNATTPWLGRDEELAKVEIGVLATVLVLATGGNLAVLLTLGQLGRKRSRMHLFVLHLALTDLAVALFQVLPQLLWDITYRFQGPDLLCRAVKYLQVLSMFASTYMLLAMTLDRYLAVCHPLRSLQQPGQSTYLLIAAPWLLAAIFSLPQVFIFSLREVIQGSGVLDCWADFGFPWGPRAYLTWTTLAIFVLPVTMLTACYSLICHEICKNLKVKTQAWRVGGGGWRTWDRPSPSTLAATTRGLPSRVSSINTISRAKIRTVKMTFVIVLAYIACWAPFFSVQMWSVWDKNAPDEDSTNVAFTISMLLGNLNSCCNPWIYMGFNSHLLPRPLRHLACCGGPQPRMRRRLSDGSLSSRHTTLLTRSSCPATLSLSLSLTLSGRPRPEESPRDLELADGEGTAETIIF
The assay is described as follows: Vasopressin V1b receptor binding test. Particulars: membranes of CHO-K1 cells with human V1b receptor, displacement of 1.5 nM 3H-AVP; for compounds with more than one stereogenic center the diastereomer with greater affinity. The method in brief: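 Affinity constants (Ki) came from nonlinear regression of triplicate scintillation counts after filtration separated bound from free radioligand. Compounds competed at human V1b membranes for 60 min, room temperature, in pH 7.4 tris/MgCl2/BSA buffer with 2% DMSO; 1 μM AVP defined nonspecific binding.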

SMILES strings stand for the structures.

For the compound `COc1ccc(S(=O)(=O)N2C(=O)C(c3cc(CN(C)C)ccc3OC)(N3C[C@H](F)C[C@H]3c3ncco3)c3cc(C#N)ccc32)cc1` (stereo partly drawn) [Example 230, 5-Cyano-3-(5-dimethylaminomethyl-2-methoxyphenyl)-3-((2S,4R)-4-fluoro-2-oxazol-2-yl-pyrrolidin-1-yl)-1-(4-methoxybenzenesulfonyl)-1,3-dihydroindol-2-one], the Ki (commonly a dissociation constant, usually derived from enzyme kinetics or from competition with a known ligand) was 10 to 100 nM. The result for `CCNCc1ccc(OC)c(C2(N3CCC[C@@]3(C)c3ncco3)C(=O)N(S(=O)(=O)c3ccc(OC)cc3)c3ccc(Cl)cc32)c1` (stereo partly drawn) [Example 231, 5-Chloro-3-(5-ethylaminomethyl-2-methoxyphenyl)-1-(4-methoxybenzenesulfonyl)-3-((S)-2-methyl-2-oxazol-2-yl-pyrrolidin-1-yl)-1,3-dihydroindol-2-one] reads less than 10 nM. Compound `CCN1CCN(Cc2ccc(OC)c(C3(N4CCC[C@@]4(C)c4ncco4)C(=O)N(S(=O)(=O)c4ccc(OC)cc4)c4ccc(Cl)cc43)c2)CC1` (stereo partly drawn) [Example 232, 5-Chloro-3-[5-(4-ethylpiperazin-1-ylmethyl)-2-methoxyphenyl]-1-(4-methoxybenzenesulfonyl)-3-((S)-2-methyl-2-oxazol-2-yl-pyrrolidin-1-yl)-1,3-dihydroindol-2-one] showed an inhibition constant (Ki) of less than 10 nM. In turn, `COc1ccc(S(=O)(=O)N2C(=O)C(c3cc(CN4CCN(CCO)CC4)ccc3OC)(N3CCC[C@H]3c3ncc(C)o3)c3cc(Cl)ccc32)cc1` (stereo partly drawn) [Example 233, 5-Chloro-3-{5-[4-(2-hydroxyethyl)piperazin-1-ylmethyl]-2-methoxyphenyl}-1-(4-methoxybenzenesulfonyl)-3-[(S)-2-(5-methyloxazol-2-yl)-pyrrolidin-1-yl]-1,3-dihydroindol-2-one] displayed an inhibitory constant (Ki) of 10 to 100 nM. The result for `COc1ccc(S(=O)(=O)N2C(=O)C(c3cc(CN(C)C)ccc3OC)(N3CCC[C@H]3c3ncc(C)o3)c3cc(Cl)ccc32)cc1` (stereo partly drawn) [Example 234, 5-Chloro-3-(5-dimethylaminomethyl-2-methoxyphenyl)-1-(4-methoxybenzenesulfonyl)-3-[(S)-2-(5-methyloxazol-2-yl)-pyrrolidin-1-yl]-1,3-dihydroindol-2-one] reads 10 to 100 nM; that for `COc1ccc(S(=O)(=O)N2C(=O)C(c3cc(CN4CCN(C)CC4)ccc3OC)(N3CCC[C@H]3c3ncc(C)o3)c3cc(Cl)ccc32)cc1` (stereo partly drawn) [Example 235, 5-Chloro-1-(4-methoxybenzenesulfonyl)-3-[2-methoxy-5-(4-methylpiperazin-1-ylmethyl)phenyl]-3-[(S)-2-(5-methyloxazol-2-yl)-pyrrolidin-1-yl]-1,3-dihydroindol-2-one], 10 to 100 nM.

The values are drawn from patent US8044079B2, “Substituted oxindole derivatives, medicaments containing said derivatives and use thereof” (Abbott GmbH & Co. KG, priority 2005, dated 2011).
